In ChEMBL document CHEMBL1151947, “Synthesis, potency, and in vivo evaluation of 2-piperazin-1-ylquinoline analogues as dual serotonin reuptake inhibitors and serotonin 5-HT1A receptor antagonists” (J Med Chem, 2009):

Assays:
Rattus norvegicus [1] = test: Initial plasma concentration in rat at 1 mg/kg, iv; type: ADME, organism-based; parameters: dose 1 mg/kg, route intravenous; conditions: in vivo
[2] = AUC in rat at 3 mg/kg, po; type: ADME, organism-based; parameters: dose 3 mg/kg, route oral; conditions: plasma
[3] = molecular target: T1, 5-hydroxytryptamine receptor 1A (Homo sapiens) (UniProt P08908); test: Antagonist activity at human 5HT1A receptor expressed in CHO cells assessed as inhibition of [35S]GTPgammaS binding relative to control; type: functional, cell-based
T1 sequence (whole entry): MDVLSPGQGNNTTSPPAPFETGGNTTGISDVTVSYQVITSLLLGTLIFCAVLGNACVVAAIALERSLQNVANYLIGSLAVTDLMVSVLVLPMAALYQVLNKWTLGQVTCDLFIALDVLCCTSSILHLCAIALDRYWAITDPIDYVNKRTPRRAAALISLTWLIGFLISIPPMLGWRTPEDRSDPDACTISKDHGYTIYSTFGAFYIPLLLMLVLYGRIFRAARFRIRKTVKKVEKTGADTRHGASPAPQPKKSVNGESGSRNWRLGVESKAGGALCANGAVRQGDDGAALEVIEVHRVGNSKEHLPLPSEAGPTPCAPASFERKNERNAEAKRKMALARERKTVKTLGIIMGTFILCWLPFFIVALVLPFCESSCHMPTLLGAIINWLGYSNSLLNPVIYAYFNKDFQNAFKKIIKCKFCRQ

D(4) dopamine receptor = molecular target: T2, D(4) dopamine receptor (Homo sapiens, UniProt P21917); test: Displacement of [3H]spiperone from human dopamine D4 receptor expressed in CHO cells; type: cell-based
T2 sequence (P21917 whole entry): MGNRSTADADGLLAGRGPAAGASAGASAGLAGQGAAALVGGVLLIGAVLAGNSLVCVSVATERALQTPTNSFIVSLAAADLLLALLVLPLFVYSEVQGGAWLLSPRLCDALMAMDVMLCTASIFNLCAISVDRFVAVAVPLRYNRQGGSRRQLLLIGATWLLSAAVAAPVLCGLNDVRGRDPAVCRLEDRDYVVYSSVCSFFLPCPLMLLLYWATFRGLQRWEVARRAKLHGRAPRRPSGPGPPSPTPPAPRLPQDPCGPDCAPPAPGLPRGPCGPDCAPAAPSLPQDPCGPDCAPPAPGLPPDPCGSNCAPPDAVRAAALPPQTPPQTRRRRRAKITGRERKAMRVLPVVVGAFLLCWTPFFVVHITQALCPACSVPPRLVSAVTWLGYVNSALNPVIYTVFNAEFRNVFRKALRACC

[4] = Oral bioavailability in rat at 3 mg/kg; type: ADME, organism-based; conditions: in vivo
Cytochrome P450 2D6 = Cytochrome P450 2D6 (Homo sapiens, UniProt P10635); test: Inhibition of CYP2D6 in human liver microsomes upto100 uM; type: ADME, Microsome
Cytochrome P450 2C8 = molecular target: T3, Cytochrome P450 2C8 (Homo sapiens, UniProt P10632); test: Inhibition of CYP2C8 in human liver microsomes; type: ADME, Microsome
T3 sequence (P10632 whole entry): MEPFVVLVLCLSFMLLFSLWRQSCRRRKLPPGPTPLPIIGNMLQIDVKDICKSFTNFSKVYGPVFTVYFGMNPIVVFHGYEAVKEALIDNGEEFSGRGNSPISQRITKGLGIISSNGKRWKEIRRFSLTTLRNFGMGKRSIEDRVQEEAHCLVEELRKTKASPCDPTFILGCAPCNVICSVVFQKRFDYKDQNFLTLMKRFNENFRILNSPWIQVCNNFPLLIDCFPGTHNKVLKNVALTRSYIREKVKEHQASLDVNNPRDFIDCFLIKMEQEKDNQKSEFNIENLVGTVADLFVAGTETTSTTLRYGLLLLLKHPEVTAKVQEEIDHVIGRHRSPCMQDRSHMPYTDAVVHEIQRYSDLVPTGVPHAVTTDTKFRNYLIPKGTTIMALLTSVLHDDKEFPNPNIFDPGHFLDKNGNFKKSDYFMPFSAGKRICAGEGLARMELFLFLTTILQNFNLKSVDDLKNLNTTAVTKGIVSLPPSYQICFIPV

D(2) dopamine receptor = D(2) dopamine receptor (Homo sapiens, UniProt P14416); test: Displacement of [3H]spiperone from human dopamine D2 receptor expressed in CHO cells; type: cell-based
[5] = Elimination half life in rat at 1 mg/kg, iv; type: ADME, organism-based; parameters: dose 1 mg/kg, route intravenous; conditions: in vivo, read-out: beta t1/2 (converted)
D(3) dopamine receptor = D(3) dopamine receptor (Homo sapiens, UniProt P35462); test: Displacement of [3H]spiperone from human dopamine D3 receptor expressed in CHO cells; type: cell-based
Cytochrome P450 3A4 = Cytochrome P450 3A4 (Homo sapiens, UniProt P08684); test: Inhibition of CYP3A4 in human liver microsomes; type: ADME, Microsome
[6] = Tmax in rat at 3 mg/kg, po; type: ADME, organism-based; parameters: dose 3 mg/kg, route oral; conditions: in vivo
Rattus norvegicus [7] = test: Antidepressant like activity in sc dosed rat resident-intruder model assessed as reduction of aggressive behavior level administered 30 mins prior to test; type: functional
[8] = molecular target: T4, 5-hydroxytryptamine receptor 1A (Homo sapiens, UniProt P08908)
T4 sequence (P08908 whole entry): T1 sequence (whole entry)
Description: Antagonist activity at human 5HT1A receptor expressed in CHO cells assessed as stimulation of [35S]GTPgammaS binding

Cytochrome P450 2A6 = molecular target: T5, Cytochrome P450 2A6 (Homo sapiens, UniProt P11509); test: Inhibition of CYP2A6 in human liver microsomes upto 100 uM; type: ADME, Microsome
T5 sequence (P11509 whole entry): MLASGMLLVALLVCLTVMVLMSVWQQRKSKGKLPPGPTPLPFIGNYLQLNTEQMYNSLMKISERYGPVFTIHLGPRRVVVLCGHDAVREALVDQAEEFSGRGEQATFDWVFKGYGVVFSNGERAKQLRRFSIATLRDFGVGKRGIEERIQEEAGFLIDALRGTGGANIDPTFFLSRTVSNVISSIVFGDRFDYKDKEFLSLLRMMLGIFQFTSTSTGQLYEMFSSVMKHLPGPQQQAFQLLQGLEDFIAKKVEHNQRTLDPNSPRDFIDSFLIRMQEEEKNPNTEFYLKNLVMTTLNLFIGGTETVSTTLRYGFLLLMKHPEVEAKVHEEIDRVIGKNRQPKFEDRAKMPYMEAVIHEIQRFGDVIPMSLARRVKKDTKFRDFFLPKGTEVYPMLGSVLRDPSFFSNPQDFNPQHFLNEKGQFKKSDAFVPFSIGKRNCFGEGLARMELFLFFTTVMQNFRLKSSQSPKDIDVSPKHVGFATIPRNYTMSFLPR

[9] = molecular target: Sodium-dependent serotonin transporter (Rattus norvegicus, UniProt P31652)
Description: Displacement of [3H]paroxetine from 5HT transporter in rat cortical membrane

[10] = AUC in rat at 10 mg/kg, po; type: ADME, organism-based; parameters: dose 10 mg/kg, route oral; conditions: plasma
[11] = Cmax in rat at 10 mg/kg, po; type: ADME, organism-based; parameters: dose 10 mg/kg, route oral; conditions: in vivo
[12] = Oral bioavailability in rat at 10 mg/kg; type: ADME, organism-based; conditions: in vivo
Cytochrome P450 2C9 = Cytochrome P450 2C9 (Homo sapiens, UniProt P11712); test: Inhibition of CYP2C9 in human liver microsomes; type: ADME, Microsome
Rattus norvegicus [13] = test: Antidepressant like activity in sc dosed rat resident-intruder model assessed as effect on total behavior score administered 30 mins prior to test; type: functional; conditions: read-out: ID50 (the source's name)
Cytochrome P450 2C19 = Cytochrome P450 2C19 (Homo sapiens, UniProt P33261); test: Inhibition of CYP2C19 in human liver microsomes; type: ADME, Microsome
Rattus norvegicus [14] = test: AUC in rat at 1 mg/kg, iv; type: ADME, organism-based, Plasma; parameters: dose 1 mg/kg, route intravenous; conditions: in vivo
[15] = Tmax in rat at 10 mg/kg, po; type: ADME, organism-based; parameters: dose 10 mg/kg, route oral; conditions: in vivo

Chain of Cytochrome P450 3A4 (P08684 whole entry): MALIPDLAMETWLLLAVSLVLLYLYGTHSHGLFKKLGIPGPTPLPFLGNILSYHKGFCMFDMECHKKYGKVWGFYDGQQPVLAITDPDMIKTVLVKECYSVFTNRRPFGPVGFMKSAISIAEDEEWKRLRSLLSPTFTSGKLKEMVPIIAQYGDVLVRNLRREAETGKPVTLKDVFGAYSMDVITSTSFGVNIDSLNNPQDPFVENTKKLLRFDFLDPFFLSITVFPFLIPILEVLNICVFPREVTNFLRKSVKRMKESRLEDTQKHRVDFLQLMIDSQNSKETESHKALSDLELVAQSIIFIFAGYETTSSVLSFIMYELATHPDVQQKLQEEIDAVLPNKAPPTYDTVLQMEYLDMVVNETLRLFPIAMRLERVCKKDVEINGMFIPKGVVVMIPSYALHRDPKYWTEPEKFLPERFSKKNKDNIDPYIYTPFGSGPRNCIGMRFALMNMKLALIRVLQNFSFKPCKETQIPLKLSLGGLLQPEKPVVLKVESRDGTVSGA
Chain of Sodium-dependent serotonin transporter (P31652 whole entry): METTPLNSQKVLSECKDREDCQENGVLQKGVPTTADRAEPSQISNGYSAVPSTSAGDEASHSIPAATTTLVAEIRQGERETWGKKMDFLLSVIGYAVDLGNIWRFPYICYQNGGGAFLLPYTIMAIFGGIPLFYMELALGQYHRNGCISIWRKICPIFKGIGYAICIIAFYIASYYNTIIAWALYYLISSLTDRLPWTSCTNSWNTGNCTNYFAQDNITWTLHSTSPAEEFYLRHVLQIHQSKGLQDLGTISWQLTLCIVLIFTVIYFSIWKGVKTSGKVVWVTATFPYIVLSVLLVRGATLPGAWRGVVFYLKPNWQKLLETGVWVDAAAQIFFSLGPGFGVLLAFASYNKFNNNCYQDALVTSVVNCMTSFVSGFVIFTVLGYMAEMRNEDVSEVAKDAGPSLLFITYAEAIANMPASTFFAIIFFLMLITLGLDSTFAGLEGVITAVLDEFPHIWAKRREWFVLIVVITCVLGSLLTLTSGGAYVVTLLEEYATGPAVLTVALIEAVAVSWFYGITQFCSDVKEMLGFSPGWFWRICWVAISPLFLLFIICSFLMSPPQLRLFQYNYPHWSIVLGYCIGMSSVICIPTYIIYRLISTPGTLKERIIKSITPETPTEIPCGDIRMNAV
Chain of D(2) dopamine receptor (P14416 whole entry): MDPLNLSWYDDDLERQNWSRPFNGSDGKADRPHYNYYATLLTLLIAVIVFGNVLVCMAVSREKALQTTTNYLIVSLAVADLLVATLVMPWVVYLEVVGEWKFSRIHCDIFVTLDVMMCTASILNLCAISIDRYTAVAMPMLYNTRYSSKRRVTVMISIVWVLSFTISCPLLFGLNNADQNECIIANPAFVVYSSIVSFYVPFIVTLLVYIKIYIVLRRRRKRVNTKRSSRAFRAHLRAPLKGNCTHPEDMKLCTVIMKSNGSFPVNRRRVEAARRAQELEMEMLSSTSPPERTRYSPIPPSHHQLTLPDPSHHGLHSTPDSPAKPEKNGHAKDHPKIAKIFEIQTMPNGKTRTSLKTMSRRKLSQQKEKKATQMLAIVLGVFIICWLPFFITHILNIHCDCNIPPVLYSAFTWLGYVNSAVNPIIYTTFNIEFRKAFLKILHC
Chain of Cytochrome P450 2C19 (P33261 whole entry): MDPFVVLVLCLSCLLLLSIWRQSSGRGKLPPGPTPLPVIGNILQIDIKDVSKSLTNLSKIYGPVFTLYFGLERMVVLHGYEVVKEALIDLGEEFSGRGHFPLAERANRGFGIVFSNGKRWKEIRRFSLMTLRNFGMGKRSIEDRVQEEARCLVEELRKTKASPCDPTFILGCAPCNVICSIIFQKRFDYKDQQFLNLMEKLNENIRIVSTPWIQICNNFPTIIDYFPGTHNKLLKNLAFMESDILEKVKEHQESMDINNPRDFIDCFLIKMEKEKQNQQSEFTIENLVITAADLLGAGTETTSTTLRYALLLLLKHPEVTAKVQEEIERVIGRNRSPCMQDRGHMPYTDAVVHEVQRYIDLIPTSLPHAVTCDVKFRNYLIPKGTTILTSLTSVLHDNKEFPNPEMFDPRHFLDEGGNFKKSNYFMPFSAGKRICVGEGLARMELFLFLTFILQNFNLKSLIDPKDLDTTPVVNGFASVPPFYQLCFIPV
Chain of D(3) dopamine receptor (P35462 whole entry): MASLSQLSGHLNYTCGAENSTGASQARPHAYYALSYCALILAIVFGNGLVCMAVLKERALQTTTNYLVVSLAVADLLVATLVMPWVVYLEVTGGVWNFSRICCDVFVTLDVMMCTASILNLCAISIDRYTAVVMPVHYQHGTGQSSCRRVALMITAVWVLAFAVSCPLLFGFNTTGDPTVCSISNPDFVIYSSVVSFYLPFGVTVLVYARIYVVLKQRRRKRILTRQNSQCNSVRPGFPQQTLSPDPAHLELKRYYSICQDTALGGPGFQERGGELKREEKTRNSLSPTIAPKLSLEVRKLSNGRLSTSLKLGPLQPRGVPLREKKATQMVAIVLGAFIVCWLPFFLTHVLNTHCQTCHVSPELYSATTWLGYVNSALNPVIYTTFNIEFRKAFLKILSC
Chain of Cytochrome P450 2C9 (P11712 whole entry): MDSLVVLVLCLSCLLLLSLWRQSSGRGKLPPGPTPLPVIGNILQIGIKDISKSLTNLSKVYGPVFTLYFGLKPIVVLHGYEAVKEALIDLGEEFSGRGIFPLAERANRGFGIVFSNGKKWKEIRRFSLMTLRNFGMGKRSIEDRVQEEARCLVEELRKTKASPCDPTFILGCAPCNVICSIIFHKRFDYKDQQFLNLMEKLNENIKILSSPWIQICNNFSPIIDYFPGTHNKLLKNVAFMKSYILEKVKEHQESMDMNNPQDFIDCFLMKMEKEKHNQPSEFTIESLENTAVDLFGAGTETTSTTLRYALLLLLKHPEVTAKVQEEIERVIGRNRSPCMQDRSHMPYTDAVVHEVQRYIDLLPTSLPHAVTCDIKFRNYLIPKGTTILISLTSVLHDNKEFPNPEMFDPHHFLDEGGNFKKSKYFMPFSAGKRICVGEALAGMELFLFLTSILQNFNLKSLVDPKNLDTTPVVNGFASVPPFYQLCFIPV
Chain of Cytochrome P450 2D6 (P10635 whole entry): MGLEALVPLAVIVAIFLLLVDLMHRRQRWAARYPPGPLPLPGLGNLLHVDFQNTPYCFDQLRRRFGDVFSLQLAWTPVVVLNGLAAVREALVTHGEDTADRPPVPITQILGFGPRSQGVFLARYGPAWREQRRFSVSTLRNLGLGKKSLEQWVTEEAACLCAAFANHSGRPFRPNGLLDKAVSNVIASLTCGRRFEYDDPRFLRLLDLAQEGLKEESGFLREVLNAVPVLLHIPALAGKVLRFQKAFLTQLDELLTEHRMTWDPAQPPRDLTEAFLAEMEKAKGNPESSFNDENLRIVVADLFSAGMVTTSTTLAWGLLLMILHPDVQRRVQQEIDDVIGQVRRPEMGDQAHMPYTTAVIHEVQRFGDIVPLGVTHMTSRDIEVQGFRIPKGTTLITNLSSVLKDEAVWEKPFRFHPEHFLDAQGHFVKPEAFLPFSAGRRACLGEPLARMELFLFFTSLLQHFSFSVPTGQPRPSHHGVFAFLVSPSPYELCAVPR

- C0 (Rattus norvegicus [1]): 903 ng/mL
- AUC [2]: 2320 ng·h/mL
- Imax [3]: 88.6%
- Ki (D(4) dopamine receptor): 1420 nM
- bioavailability [4]: 61%
- inhibition (INH) (Cytochrome P450 2D6): Not Active
- IC50 (Cytochrome P450 2C8): 29000 nM
- Ki (D(2) dopamine receptor): 1310 nM
- half-life [5]: 4 h
- Ki (D(3) dopamine receptor): 1320 nM
- IC50 (Cytochrome P450 3A4): 10000 nM
- Tmax [6]: 1.3 h
- IC50 [8]: 102 nM
- inhibition (INH) (Cytochrome P450 2A6): Not Active
- Ki [9]: 13.8 nM
- AUC [10]: 4620 ng·h/mL
- Cmax [11]: 815 ng/mL
- bioavailability [12]: 36%
- IC50 (Cytochrome P450 2C9): 358000 nM
- IC50 (Cytochrome P450 2C19): 98000 nM
- AUC (Rattus norvegicus [14]): 1268 ng·h/mL
- Tmax [15]: 1 h
Structure (SMILES): Cc1ccc2c3c(ccc2n1)OC[C@H](CN1CCN(c2ccc4cc(C#N)ccc4n2)CC1)O3
- Activity (Rattus norvegicus [7]): Dose-dependent effect
- ED50 (Rattus norvegicus [7]; read-out: ID50 (the source's name)): 12.5 mg/kg
- ED50 (Rattus norvegicus [13]): > 30 mg/kg
